In ChEMBL document CHEMBL5356967, “Design, synthesis, evaluation and optimization of novel azole analogues as potent antifungal agents” (Bioorg Med Chem, 2024):
In brackets after ≈: the same amount, converted by molar mass.

Columns and labels:
Assay type in all cases: functional
[1] = system: Candida albicans; assay: Antifungal activity against Candida albicans Y0109 assessed as inhibition of fungal growth incubated for 24 hrs by broth microdilution method
[2] = system: Candida albicans; assay: Antifungal activity against Candida albicans SC5314 assessed as inhibition of fungal growth incubated for 24 hrs by broth microdilution method
[3] = system: Cryptococcus neoformans; assay: Antifungal activity against Cryptococcus neoformans ATCCBLS108 assessed as inhibition of fungal growth incubated for 72 hrs by broth microdilution method
[4] = system: Candida parapsilosis; assay: Antifungal activity against Candida parapsilosis 0306392 assessed as inhibition of fungal growth incubated for 24 hrs by broth microdilution method; conditions: Lodderomyces parapsilosis
[5] = system: Candida tropicalis; assay: Antifungal activity against Candida tropicalis 0370354 assessed as inhibition of fungal growth incubated for 24 hrs by broth microdilution method
[6] = system: Trichophyton rubrum; assay: Antifungal activity against Trichophyton rubrum 0501124 assessed as inhibition of fungal growth incubated for 24 hrs by broth microdilution method
[7] = system: Nannizzia gypsea; assay: Antifungal activity against Microsporum gypseum 0310388 assessed as inhibition of fungal growth incubated for 24 hrs by broth microdilution method
[8] = system: Aspergillus fumigatus; assay: Antifungal activity against Aspergillus fumigatus 0504656 assessed as inhibition of fungal growth incubated for 48 hrs by broth microdilution method
[9] = system: Candida albicans; assay: Potency index, ratio of Ketoconazole MIC80 to test compound MIC80 for antifungal activity against Candida albicans Y0109 assessed as inhibition of fungal growth incubated for 24 hrs by broth microdilution method
[10] = system: Candida albicans; assay: Potency index, ratio of Fluconazole MIC80 to test compound MIC80 for antifungal activity against Candida albicans Y0109 assessed as inhibition of fungal growth incubated for 24 hrs by broth microdilution method
[11] = system: Candida albicans; assay: Potency index, ratio of Ketoconazole MIC80 to test compound MIC80 for antifungal activity against Candida albicans SC5314 assessed as inhibition of fungal growth incubated for 24 hrs by broth microdilution method
[12] = system: Candida albicans; assay: Potency index, ratio of Fluconazole MIC80 to test compound MIC80 for antifungal activity against Candida albicans SC5314 assessed as inhibition of fungal growth incubated for 24 hrs by broth microdilution method
[13] = system: Candida albicans; assay: Antifungal activity against fluconazole-resistant Candida albicans 901 assessed as inhibition of fungal growth incubated for 24 hrs by broth microdilution method
[14] = system: Candida albicans; assay: Antifungal activity against fluconazole-resistant Candida albicans 904 assessed as inhibition of fungal growth incubated for 24 hrs by broth microdilution method

SMILES | MIC80 [1] [µg/mL] | MIC80 [2] [µg/mL] | MIC80 [3] [µg/mL] | MIC80 [4] [µg/mL] | MIC80 [5] [µg/mL] | MIC80 [6] [µg/mL] | MIC80 [7] [µg/mL] | MIC80 [8] [µg/mL] | Ratio [9] | Ratio [10] | Ratio [11] | Ratio [12] | MIC80 [13] [µg/mL] | MIC80 [14] [µg/mL]
CC1CCN(CCc2cn(C[C@H]3CO[C@](Cn4ccnc4)(c4ccc(O)cc4F)O3)nn2)CC1 (mixture of isomers) | 0.063 | 0.016 | 0.063 | 0.125 | 0.25 | 1 | 0.25 | > 64 |  |  |  |  |  | 
CNCCc1cn(C[C@H]2CO[C@](Cn3ccnc3)(c3ccc(O)cc3F)O2)nn1 (mixture of isomers) | 0.063 | 0.125 | 0.125 | 0.25 | 0.25 | 1 | 0.25 | > 64 |  |  |  |  |  | 
CCN(CC)CCc1cn(C[C@H]2CO[C@](Cn3ccnc3)(c3ccc(O)cc3F)O2)nn1 (mixture of isomers) | 0.016 | 0.016 | 0.063 | 0.125 | 0.125 | 0.25 | 0.125 | 16 | 64 | 16 | 64 | 16 | > 64 | > 64
CCCCCOc1ccc(-c2cn(C[C@H]3CO[C@](Cn4ccnc4)(c4ccc(O)cc4F)O3)nn2)cc1 (mixture of isomers) | 0.016 | 0.016 | 0.063 | 0.125 | 1 | 0.5 | 0.25 | 16 | 64 | 16 | 64 | 16 | > 64 | > 64
CCCN(CCC)CCc1cn(C[C@H]2CO[C@](Cn3ccnc3)(c3ccc(O)cc3F)O2)nn1 (mixture of isomers) | 0.016 | 0.016 | 0.125 | 0.25 | 1 | 0.125 | 0.125 | > 64 | 64 | 16 | 64 | 16 | > 64 | > 64
Oc1ccc([C@@]2(Cn3ccnc3)OC[C@H](Cn3cc(CCN4CCC(O)CC4)nn3)O2)c(F)c1 (mixture of isomers) | 0.063 | 0.016 | 0.125 | 0.125 | 0.25 | 0.25 | 0.125 | 16 |  |  |  |  |  | 
CC(=O)N1CCN(c2ccc(OC[C@@H]3CO[C@@](Cn4ccnc4)(c4ccc(Cl)cc4Cl)O3)cc2)CC1 [LEVOKETOCONAZOLE] | 1 (≈ 1.88 µM) | 1 (≈ 1.88 µM) | 1 (≈ 1.88 µM) | 2 (≈ 3.76 µM) | 32 (≈ 60.2 µM) | 4 (≈ 7.53 µM) | 16 (≈ 30.1 µM) | > 64 |  |  |  |  | > 64 | > 64
Oc1ccc([C@@]2(Cn3ccnc3)OC[C@H](Cn3cc(CCN4CCCC4)nn3)O2)c(F)c1 (mixture of isomers) | 0.063 | 0.063 | 0.063 | 0.125 | 0.25 | 0.25 | 0.5 | 16 |  |  |  |  |  | 
CCC(C)n1ncn(-c2ccc(N3CCN(c4ccc(OCC5COC(Cn6cncn6)(c6ccc(Cl)cc6Cl)O5)cc4)CC3)cc2)c1=O (configuration not stated) [ITRACONAZOLE] | 0.063 (≈ 0.0893 µM) | 0.25 (≈ 0.354 µM) | 0.063 (≈ 0.0893 µM) | 0.25 (≈ 0.354 µM) | 0.25 (≈ 0.354 µM) | 0.063 (≈ 0.0893 µM) | 0.25 (≈ 0.354 µM) | 1 (≈ 1.42 µM) |  |  |  |  |  | 
C[C@@H](c1ncncc1F)[C@](O)(Cn1cncn1)c1ccc(F)cc1F [VORICONAZOLE] | 0.016 (≈ 0.0458 µM) | 0.016 (≈ 0.0458 µM) | 0.016 (≈ 0.0458 µM) | 0.016 (≈ 0.0458 µM) | 0.063 (≈ 0.18 µM) | 0.063 (≈ 0.18 µM) | 0.063 (≈ 0.18 µM) | 0.25 (≈ 0.716 µM) |  |  |  |  |  | 
Oc1ccc([C@@]2(Cn3ccnc3)OC[C@H](Cn3cc(CCNC4CC4)nn3)O2)c(F)c1 (mixture of isomers) | 0.063 | 0.125 | 0.125 | 0.25 | 0.125 | 0.125 | 0.25 | > 64 |  |  |  |  |  | 

More lines, main results first:

MIC80 [1] [µg/mL] | MIC80 [2] [µg/mL] | MIC80 [3] [µg/mL] | MIC80 [4] [µg/mL] | MIC80 [5] [µg/mL] | MIC80 [6] [µg/mL] | MIC80 [7] [µg/mL] | MIC80 [8] [µg/mL] | SMILES | Ratio [9] | Ratio [10] | Ratio [11] | Ratio [12] | MIC80 [13] [µg/mL] | MIC80 [14] [µg/mL]
0.063 | 0.25 | 0.25 | 0.25 | 0.25 | 4 | 0.125 | 16 | Oc1ccc([C@@]2(Cn3ccnc3)OC[C@H](Cn3cc(C4CC4)nn3)O2)c(F)c1 (mixture of isomers) |  |  |  |  |  | 
0.063 | 0.063 | 2 | 2 | 0.25 | 4 | 4 | > 64 | Cc1ccc(-c2cn(C[C@H]3CO[C@](Cn4ccnc4)(c4ccc(O)cc4F)O3)nn2)cc1 (mixture of isomers) |  |  |  |  |  | 
0.063 | 0.125 | 0.25 | 2 | 4 | 2 | 2 | > 64 | CCCc1ccc(-c2cn(C[C@H]3CO[C@](Cn4ccnc4)(c4ccc(O)cc4F)O3)nn2)cc1 (mixture of isomers) |  |  |  |  |  | 
0.063 | 0.063 | 0.125 | 0.25 | 0.25 | 2 | 0.125 | > 64 | Cc1cccc(-c2cn(C[C@H]3CO[C@](Cn4ccnc4)(c4ccc(O)cc4F)O3)nn2)c1 (mixture of isomers) |  |  |  |  |  | 
0.063 | 0.125 | 0.063 | 0.125 | 0.125 | 1 | 0.25 | > 64 | Oc1ccc([C@@]2(Cn3ccnc3)OC[C@H](Cn3cc(C(O)c4ccccc4)nn3)O2)c(F)c1 (mixture of isomers) |  |  |  |  |  | 
0.063 | 0.063 | 0.063 | 0.125 | 0.125 | 0.25 | 0.25 | > 64 | CC(C)(C)c1ccc(-c2cn(C[C@H]3CO[C@](Cn4ccnc4)(c4ccc(O)cc4F)O3)nn2)cc1 (mixture of isomers) |  |  |  |  |  | 
0.063 | 0.125 | 0.125 | 0.125 | 0.5 | 0.25 | 0.125 | > 64 | Oc1ccc([C@@]2(Cn3ccnc3)OC[C@H](Cn3cc(-c4ccccc4)nn3)O2)c(F)c1 (mixture of isomers) |  |  |  |  |  | 
0.063 | 0.063 | 0.063 | 0.125 | 0.25 | 0.5 | 0.25 | > 64 | COc1ccc(-c2cn(C[C@H]3CO[C@](Cn4ccnc4)(c4ccc(O)cc4F)O3)nn2)cc1 (mixture of isomers) |  |  |  |  |  | 
0.063 | 0.063 | 0.063 | 0.125 | 0.125 | 1 | 0.25 | 16 | Oc1ccc([C@@]2(Cn3ccnc3)OC[C@H](Cn3cc(COc4ccccc4)nn3)O2)c(F)c1 (mixture of isomers) |  |  |  |  |  | 
0.063 | 0.125 | 1 | 0.125 | 1 | 2 | 1 | > 64 | Oc1ccc([C@@]2(Cn3ccnc3)OC[C@H](Cn3cc(-c4cccc(F)c4)nn3)O2)c(F)c1 (mixture of isomers) |  |  |  |  |  | 
0.063 | 0.125 | 0.125 | 0.25 | 4 | 4 | 0.125 | > 64 | Oc1ccc([C@@]2(Cn3ccnc3)OC[C@H](Cn3cc(-c4ccc(F)cc4)nn3)O2)c(F)c1 (mixture of isomers) |  |  |  |  |  | 
0.063 | 0.125 | 0.125 | 0.125 | 1 | 0.25 | 0.125 | 16 | N#CCc1ccc(-c2cn(C[C@H]3CO[C@](Cn4ccnc4)(c4ccc(O)cc4F)O3)nn2)cc1 (mixture of isomers) |  |  |  |  |  | 
0.063 | 0.25 | 0.125 | 0.25 | 4 | 4 | 0.125 | 16 | Oc1ccc([C@@]2(Cn3ccnc3)OC[C@H](Cn3cc(-c4ccccn4)nn3)O2)c(F)c1 (mixture of isomers) |  |  |  |  |  | 
